Test results from patent publication US20220062299A1, “USE OF GLUCOCORTICOID STEROIDS IN PREVENTING AND TREATING CONDITIONS OF MUSCLE WASTING, AGING AND METABOLIC DISORDER” (NORTHWESTERN UNIVERSITY, priority 2018, published 2022).

System: Wildtype (WT) mice fed high-fat chow
Assay: Diet-induced obesity, wildtype mice on high-fat chow, 8 weeks
Assay type: in vivo, mouse
Protocol: Glucose was measured in blood (first drop from tail venipuncture) or serum (5 μl of 1:2 dilution) with an AimStrip Plus glucometer system (Germaine Laboratories, San Antonio, Tex.) and expressed as mg/dl values. Lactate was measured in blood (second drop from tail venipuncture) or serum (5 μl of 1:2 dilution) with a Lactate Plus reader (Nova Biomedical, Waltham, Mass.) and expressed as mM values. Fasting glycemia was measured in mice after 4 hours fasting (7 AM-11 AM). Glucose, insulin and pyruvate tolerance tests were conducted after 4 hours fasting in individual cages immediately after baseline fasting glucose monitoring. Mice were injected with either 1 g/kg glucose (#D8375-1 g; Millipore Sigma, St Louis, Mo.), or 0.5 U/kg insulin (#12585014; Thermo Fisher, Waltham, Mass.), or 2.5 g/kg pyruvate (#P5280-25 g; Millipore Sigma, St Louis, Mo.) in 200 μl intraperitoneal injections, and glucose was then monitored by tail venipuncture at 10 min, 20 min, 30 min, 60 min, 120 min after injection. All glucose and pyruvate tolerance tests were conducted blinded to treatment groups.
MRI scan. Magnetic resonance imaging (MRI) scans to determine fat and lean mass ratios (% of total body weight) were conducted in non-anesthetized, non-fasted mice at 2 PM using the EchoMRI-100H Whole Body Composition analyzer (EchoMRI, Houston, Tex.). Mice were weighed immediately prior to MRI scan. Before each measurement session, system was calibrated using the standard internal calibrator tube (canola oil). Mice were typically scanned in sample tubes dedicated to mice comprised between 20 g and 40 g body mass. Data were collected through built-in software EchoMRI version 140320. Data were analyzed when hydration ratio >85%. MRI scans were conducted blinded to treatment groups.
Muscle function, whole-body plethysmography, echocardiography. Forelimb grip strength was monitored using a meter (Cat #1027SM; Columbus Instruments, Columbus, Ohio) blinded to treatment groups. Animals performed ten pulls with 5 seconds rest on a flat surface between pulls. Immediately before sacrifice, in situ tetanic force from tibialis anterior muscle was measured using a Whole Mouse Test System (Cat #1300A; Aurora Scientific, Aurora, ON, Canada) with a 1N dual-action lever arm force transducer (3000-LR, Aurora Scientific, Aurora, ON, Canada) in anesthetized animals (0.8 I/min of 1.5% isoflurane in 100% O2). Tetanic isometric contraction was induced with following specifications: initial delay, 0.1 sec; frequency, 200 Hz; pulse width, 0.5 msec; duration, 0.5 sec; using 100 mA stimulation (Quattrocelli et al., 2015). Length was adjusted to a fixed baseline of 50 mN resting tension for all muscles/conditions. Fatigue analysis was conducted by repeating tetanic contractions every 10 seconds until complete exhaustion of the muscle (50 cycles). Time of contraction was assessed as time to max tetanic value within the 0.0-0.5 sec range of each tetanic contraction, while time of relaxation was assessed as time to 90% min tetanic value within the 0.5-0.8 sec range of every tetanus. […] Data was recorded for a total of 15 minutes broken into 3 consecutive 5-minute periods. […] Cardiac function was assessed by echocardiography, which was conducted under anesthesia (0.8 L/min of 1.5% vaporized isoflurane in 100% O2) on mice between 2 and 5 days before sacrifice. […]

## C[C@]12C=CC(=O)C=C1CC[C@@H]1[C@@H]2C(=O)C[C@@]2(C)[C@H]1CC[C@]2(O)C(=O)CO [prednisone, Prednisone]
Weekly prednisone
  gain of hyperglycemia (fasting blood glucose over time): reduced
  lean mass retention: improved
Weekly prednisone 1 mg/kg i.p., vs vehicle
  gain of body weight and fat mass: slightly but significantly reduced
Weekly prednisone, endpoint
  body-wide glucose homeostasis (glucose and insulin tolerance tests): improved
  grip strength, tetanic force production and aerobic exercise capacity: improved
